In PubChem BioAssay AID463229 (Broad Institute, 2010):
Activity calls are given as the source filed them.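 Rule for the calls: active = compounds raising the signal whose fitted half-maximal concentration is at or below their top tested dose (cut at about 25 µM in these data); inconclusive = flat fit at 30 to 70% activity, or a poor fit; inactive = the rest.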

These compounds were tested on INS-1E rat beta cells, no cytokines, CellTiter-Glo ATP, 48 h (assay: ATP level change in INS-1E without cytokines, dose response, counter-screen for beta-cell apoptosis protection project, INS-1E rat cells, ATP luminescence, cherry pick (AID 463229)).

SMILES	AC50
N#C/C(=N\Nc1ccc(Cl)cc1)C(=O)c1ccccc1	2.84 µM
O=c1[nH]c(=O)n(-c2ccc(F)cc2)c2c1C(C(F)(F)F)(C(F)(F)F)N=C(c1ccc(F)cc1)N2	6.05 µM
COc1cc2ccccc2cc1C(=O)Nc1sc2c(c1C(N)=O)CCN(C(C)C)C2	9.16 µM
COc1ccc(Nc2nc(N3CCCC3)c3ccccc3n2)cc1	9.85 µM
CC1CN(S(=O)(=O)c2ccc(C(=O)NCCCn3ccnc3)cc2)CC(C)O1 (stereo not given)	1.39 µM
C/C(=N\N1C(=O)c2ccccc2NC1c1ccccc1)c1ccccc1O (stereo not given)	19.1 µM
COC(=O)C1CCCCN1C(=O)c1cc(COc2cccc3cnccc23)on1 (stereo not given)	7.11 µM
C/C(=N\NC(=O)C(c1ccccc1)c1ccccc1)c1ccccn1	8.03 µM
Oc1ccccc1/C=N/Nc1nc2ccccc2o1	4.62 µM
Cc1nc2ccccc2cc1OCc1ccc(F)cc1	6.6 µM
COC(=O)c1c(C)oc2ccc(N(C(=O)c3ccncc3)S(=O)(=O)c3ccc(C)cc3C)cc12	5.76 µM
Cc1ccc2nc(NC(=O)/C=C/c3ccc4c(c3)OCO4)sc2c1	7.35 µM
Cc1cccc(Nc2nc(N)c([N+](=O)[O-])c(N3CC(C)CC(C)C3)n2)c1 (stereo not given)	14.8 µM
Cc1ccc(C(C)C)c(OCc2nn(CC(=O)c3ccc(Cl)cc3)c3[n+]2CCCCC3)c1	4.55 µM
O=C(c1cc(COc2cccc3cnccc23)on1)N1CCCC(CCCO)C1 (stereo not given)	2.04 µM
CCCCCn1c(=O)c(C(=O)NC(C)c2ccccc2)c(O)c2ccccc21 (stereo not given)	4.19 µM
C=CCn1c(SCC(=O)c2[nH]c(C)c(C(=O)OCC)c2C)nc2scc(-c3ccc(OC)c(OC)c3)c2c1=O	3.53 µM
CCN(CC)c1ccc(/C=N/NC(=O)c2c(Cl)cnn2C)c(O)c1	1.5 µM
O=C1C=C(N2CCOCC2)c2ccccc2C1=O	6.13 µM
Cc1cc(N/N=C/c2ccccc2[N+](=O)[O-])nc(-n2nc(C)cc2C)n1	12.2 µM
COc1ccccc1-[n+]1c(C)cc(/C=C2\Sc3ccccc3N2C)cc1C	< 0.195 µM
CCOc1ccc2nc(NC(=O)c3ccccn3)sc2c1	6.67 µM
N#C/C(=C\c1ccc([N+](=O)[O-])o1)c1nc2ccccc2[nH]1	4.09 µM
CCCCNc1c(-c2ccc(SC3CCCCC3)cc2)nc2ccccn12	5.31 µM
Cc1ccc(C)c(S(=O)(=O)N2CCN(Cc3ccc(O)c4ncccc34)CC2)c1	5.74 µM
COc1cc2cc(C(=O)N3CCOCC3)cc(-c3ccc(C)cc3)c2cc1OC	5.15 µM
O=C1C(=O)c2ccc(-c3ccccc3)cc2-c2ccccc21	1.1 µM

SMILES	AC50
COc1ccc(CNCCc2c(C)[nH]c3ccc(OC(F)(F)F)cc23)c(OC)c1	6.6 µM
COc1ccc(C(CCN2CCCCC2)c2c(OC)cc(OC)c3c(-c4ccccc4)cc(=O)oc23)cc1 (stereo not given)	14.1 µM
COc1cccc(/C=N/NC(=O)c2cc3c(OC)ccc(OC)c3[nH]2)c1O	10.7 µM
C=C[C@H](CC(C)C)N(Cc1ccccc1)S(=O)(=O)N(Cc1ccccc1)[C@@H](C=C)CC(C)C	5.72 µM
Cc1cnc(NC(=O)CN2CCN(c3ccccn3)CC2)s1	4.35 µM
CC(Nc1ncnc2ccccc12)c1ccccc1 (stereo not given)	3.58 µM
Cn1nnnc1N=N/C(=N/Nc1ccccc1)c1ccccc1	4.36 µM
Cn1nnnc1Sc1ncnc2scc(-c3cc4ccccc4o3)c12	7.61 µM
CCn1c(/C=C/c2ccc([N+](=O)[O-])o2)nc2ccccc2c1=O	4.08 µM
COc1ccc(C(C)NCCC(c2ccc(OC(C)C)cc2)c2ccccc2OC)cc1 (stereo not given)	7.99 µM
O=C(Nc1nc2ccc([N+](=O)[O-])cc2s1)c1ccc(S(=O)(=O)N2CCCc3ccccc32)cc1	2.63 µM
O=C(Oc1c(CN2CCOCC2)cc(Cl)c2cccnc12)c1cccs1	16 µM
COC(/C(=N/O)c1ccc(Cl)cc1)c1ccccc1 (stereo not given)	2.66 µM
O=C(/C=C/c1ccc(-c2ccccc2)cc1)NCc1cccnc1	9.36 µM
CCCCCCCC[n+]1c(C)n(-c2ccccc2)c2ccc(NC(C)=O)cc21	3.76 µM
N#CC(C#N)=C(Nc1ccc(F)cc1)SCc1cccc(Br)c1	3.02 µM
CCc1ccc(-n2cc(-c3ccc(F)cc3)[n+]3c2SCCC3)cc1	0.413 µM
O=C(N/N=C/c1cc(Cl)ccc1O)c1ccc(Br)cc1	4.07 µM
CCn1c(SCC(=O)Nc2cc(C)on2)nc2sc3c(c2c1=O)CCCC3	16.7 µM
Cc1ccc(C2C(C=Nc3c(C)n(C)n(-c4ccccc4)c3=O)=C(c3ccccc3)Oc3ccccc32)cc1 (stereo not given)	7.38 µM
CC(=O)c1c(C)oc2ccc(N(C(C)=O)S(=O)(=O)c3cccc4cccnc34)cc12	7.79 µM
C=C1C(=O)O[C@@H]2C[C@@H](C)[C@@H]3C=CC(=O)[C@@]3(C)[C@@H](OC(C)=O)[C@H]12	2.21 µM
CCN(CC)c1ccc(/C=N/NC(=O)c2ccc3nc[nH]c3c2)c(O)c1	2.7 µM
CCCCCCCCCCCCn1ccc(=N)cc1	0.515 µM
N=c1ccn(Cc2ccc(Cl)cc2Cl)cc1	7.81 µM
Nc1nc(-c2ccccn2)nc(N)c1Cc1ccc(Cl)cc1Cl	11.9 µM
CCOC(=O)N1CCN(c2ncnc3c2[nH]c2ccc(F)cc23)CC1	6.43 µM

SMILES	AC50
CC1CCC(C(C)C)C(OC(=O)C[n+]2cc(-c3ccc(Cl)cc3)n3c2CCCCC3)C1 (stereo not given)	7.32 µM
CNc1ccc2oc(C[C@H]3O[C@@]4(CC[C@H]3C)O[C@H]([C@H](C)C(=O)c3ccc[nH]3)[C@H](C)C[C@H]4C)nc2c1C(=O)O	1.32 µM
O=C(CSC1=NCCS1)Nc1ccnc2ccccc12	12.5 µM
Cc1ccc(C(=O)N/C(=C\c2ccc(-c3ccc(Cl)cc3)o2)C(=O)NCCCN(C)C)cc1	10.9 µM
Fc1ccccc1/C=N/Nc1nc(-c2ccccn2)nc2ccccc12	3.49 µM
O=C(Nc1ccc(Cl)c(Cl)c1)N1CCSC1c1ccco1 (stereo not given)	14.2 µM
CCCCCCCCCCOC(=O)C[N+](C)(C)C/C=C(/C)Cl	16.7 µM
O=C(CSC1c2ccccc2-c2ccccc21)N/N=C/c1ccccc1O	6.8 µM
CCn1c(C)c(C)c2cc(C(=O)N3CCc4ccccc4C3)ccc21	3.14 µM
CCCCC(CC)CN1C(=O)/C(=C/c2ccncc2)SC1=S (stereo not given)	> 26 µM (inactive)
O=C(N/N=C\c1cc(Br)ccc1O)c1ccc(S(=O)(=O)N2CCCCC2)cc1	3.54 µM
Cc1ccccc1C(=O)N1CCN(c2ccc(NC(=O)c3cccnc3)cc2)CC1	11.7 µM
NC(N)=NC(N)=Nc1ccc(SC(F)(F)F)cc1	2.76 µM
CCC(=O)NC(c1ccc(C)cc1)c1cc([N+](=O)[O-])c2cccnc2c1O (stereo not given)	13.8 µM
COC(=O)c1cccc(NC(=O)Nc2ccc(Cl)c(Cl)c2)c1	10.4 µM
CC1(C)N=C(N)N=C(N)N1c1ccc(OCCCOc2ccccc2)c(Cl)c1	0.913 µM
CCCCCCCCCCOC(=O)Cn1c(COc2ccc(C)cc2)[n+](C)c2ccccc21	4 µM
C[n+]1c2n(c3ccccc31)N=C(c1cc(C(C)(C)C)c(O)c(C(C)(C)C)c1)CS2	0.39 µM
O=c1c2c(nc3c(-c4ccc(Cl)cc4)c[nH]n13)CCCC2	7.43 µM
COc1ccc(C(NC(C)=O)c2cc(Cl)c3cccnc3c2O)cc1 (stereo not given)	7.34 µM
FC(F)(F)c1ccc(CN2C[C@@H]3C(c4ccc(C(F)(F)F)cc4)C4(c5cccnc5)CC3(C4)[C@H]2c2ccccc2)cc1 (stereo not given in full)	5.15 µM
COc1ccc(-[n+]2c(C)cc(/C=C3\Sc4ccccc4N3C)cc2C)cc1	< 0.195 µM
CC(=O)c1c(C)[nH]c(C(=O)OCC(=O)Nc2ccc(C)cc2[N+](=O)[O-])c1C	1.6 µM
O=C(COc1ccc(Br)cc1)N1CCN(Cc2c[nH]c3ccccc23)CC1	3 µM
CC(=O)N1c2ccc(S(=O)(=O)N3CCC(C(=O)N4CCN(c5cccc(C(F)(F)F)c5)CC4)CC3)cc2CC1C (stereo not given)	5.82 µM
O=C(c1ccc(-c2ccc(Cl)cc2)o1)N1CCN(c2ccc([N+](=O)[O-])cc2Cl)CC1	4.92 µM
S=C(NCCCN1CCOCC1)N1CCN(c2nc(-c3ccc(Cl)cc3)cs2)CC1	12.9 µM

SMILES	AC50
O=C(N/N=C/c1cc(Br)ccc1O)C(=O)Nc1ccccc1OC(F)(F)C(F)F	6.77 µM
Cc1ccc2oc(-c3ccc(NC(=O)c4cccnc4)cc3)nc2c1	19.1 µM
O=c1cc(CSc2ccc(Cl)cc2)nc(-c2ccccn2)[nH]1	11.6 µM
COc1ccccc1/C=C1\SC(=O)N(CCC(=O)NCCCn2ccnc2)C1=O	8.2 µM
CCCCCCSc1ccc([C@H]2N[C@@](Cc3ccccc3)(C(=O)OC)[C@H]3C(=O)N(C)C(=O)[C@@H]23)cc1	14.6 µM
CN(C)CCCNc1c2ccccc2nc2ccccc12	16.2 µM
O=C(NCc1cccnc1)c1ccc(NC(=O)c2ccc([N+](=O)[O-])cc2)cc1	0.215 µM
CCN1CCN(Cc2ccc(NC(=O)c3cc(NC(=O)c4cncc(-c5ccc(C#N)cc5)c4)cc(OC)c3)cc2C(F)(F)F)CC1	10.8 µM
O=C(Nc1ccc(-c2csc(Nc3cccc(C(F)(F)F)c3)n2)cc1)c1cc([N+](=O)[O-])cc(C(F)(F)F)c1	7.63 µM
CC1CCC/C=C/C2CC(O)CC2C(O)/C=C/C(=O)O1 (stereo not given)	0.759 µM
O=C(Nc1nc2ccc(F)cc2s1)c1ccccn1	4.43 µM
Cc1ccc(Cl)cc1NC1=C/C(=N\S(=O)(=O)c2cccs2)c2ccccc2C1=O	4.61 µM
COc1cccc(C(=O)Oc2c(Br)cc(Br)cc2/C=N/NC(=O)c2cc(C)[nH]n2)c1	7.17 µM
O=C(N/N=C/c1cc(Br)c(O)c(Br)c1O)c1ccc2c(c1)OCCO2	8.27 µM
C/C(=N\NC(=O)c1nnn(-c2nonc2N)c1CN(C)c1ccccc1)c1ccccc1O	9.18 µM
COc1ccc2cc3[n+](cc2c1OC)CCc1cc2c(cc1-3)OCO2	5.44 µM
CC(=O)N1CCCc2cc(S(=O)(=O)N3CCCC(C(=O)N4CCN(c5cccc(Cl)c5)CC4)C3)ccc21 (stereo not given)	7.05 µM
C#CCOCCOCCOCCNc1nc(N2CCN(C(=O)CCCCCCCCCCNC(=O)[C@H](CCCCN)n3cc(CCO)nn3)CC2)nc(N2CCN(C(=O)CCCCCCCCCCNC(=O)[C@H](CCCCN)n3cc(C[C@@H](C)CC)nn3)CC2)n1	10.6 µM
COc1cc2c(cc1OC)[C@@H]1C(=O)c3ccc4c(c3O[C@@H]1CO2)C[C@H](C(C)C)O4	< 0.195 µM
CCCCCc1ccc(OCCCC[n+]2ccccc2)c(CCCCC)c1	3.3 µM
Cc1occc(=O)c1OC(=O)Nc1ccc(Cl)c(Cl)c1	7.74 µM
CC(C)C[C@H](NC(=O)c1nc[nH]c1C(=O)N[C@@H](CC(C)C)C(=O)OC(C)(C)C)C(=O)OCc1ccccc1	14.6 µM
CC1=NN(c2nc3ccccc3[nH]2)C(=O)/C1=C/N(C)C	2.9 µM
CCOC(=O)c1cnc(-n2nc(C)cc2C)nc1NCc1ccccc1	7.8 µM
